Laboratory results published in patent US20080261994A1, “CYCLOPROPANE COMPOUNDS AND PHARMACEUTICAL USE THEREOF” (Japan Tobacco Inc., priority 2003, published 2008).
pIC50: −log10 of the molar value. Read-outs that look alike come from different tables or passages of the source.

Key:
Type in all cases: biochemical
aggrecanase-1 = biological target: T1, aggrecanase-1 (Homo sapiens, UniProt O75173); experiment: Aggrecanase-1 inhibitory action (Particle Assay, GAG release from aggrecan-containing polyacrylamide particles)
T1 sequence (O75173 213-837): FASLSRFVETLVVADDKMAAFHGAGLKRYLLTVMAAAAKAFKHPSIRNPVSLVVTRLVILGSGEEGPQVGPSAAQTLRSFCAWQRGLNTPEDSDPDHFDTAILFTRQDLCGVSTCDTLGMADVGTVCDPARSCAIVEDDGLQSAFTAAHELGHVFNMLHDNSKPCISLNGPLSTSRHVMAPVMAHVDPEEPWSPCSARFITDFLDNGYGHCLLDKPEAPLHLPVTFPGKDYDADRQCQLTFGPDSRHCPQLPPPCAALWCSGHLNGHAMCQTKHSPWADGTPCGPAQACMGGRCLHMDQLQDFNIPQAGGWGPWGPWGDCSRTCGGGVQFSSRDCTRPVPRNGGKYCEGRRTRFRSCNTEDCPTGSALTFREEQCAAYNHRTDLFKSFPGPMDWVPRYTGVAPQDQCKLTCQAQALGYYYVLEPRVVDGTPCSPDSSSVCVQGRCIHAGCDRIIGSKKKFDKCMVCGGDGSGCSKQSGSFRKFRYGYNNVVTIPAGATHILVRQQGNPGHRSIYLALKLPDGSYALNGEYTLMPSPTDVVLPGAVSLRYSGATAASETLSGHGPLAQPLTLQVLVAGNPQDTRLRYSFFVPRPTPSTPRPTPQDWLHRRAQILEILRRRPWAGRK
Method in brief: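 Enzyme and compound incubated with aggrecan-containing polyacrylamide particles in Tris-HCl buffer at 37° C for 15 h. Released GAG in supernatant measured with 1,9-dimethylmethylene blue at 595 nm against chondroitin sulfate standard; % inhibition from enzyme-free and inhibitor-free wells, reported as TC50 (μM).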

MMP-1 = biological target: T2, MMP-1 (Homo sapiens, UniProt P03956); experiment: MMP-1 inhibitory action (Type I collagen Activity Measurement kit, FITC-labeled collagen type I)
T2 sequence (P03956 100-469): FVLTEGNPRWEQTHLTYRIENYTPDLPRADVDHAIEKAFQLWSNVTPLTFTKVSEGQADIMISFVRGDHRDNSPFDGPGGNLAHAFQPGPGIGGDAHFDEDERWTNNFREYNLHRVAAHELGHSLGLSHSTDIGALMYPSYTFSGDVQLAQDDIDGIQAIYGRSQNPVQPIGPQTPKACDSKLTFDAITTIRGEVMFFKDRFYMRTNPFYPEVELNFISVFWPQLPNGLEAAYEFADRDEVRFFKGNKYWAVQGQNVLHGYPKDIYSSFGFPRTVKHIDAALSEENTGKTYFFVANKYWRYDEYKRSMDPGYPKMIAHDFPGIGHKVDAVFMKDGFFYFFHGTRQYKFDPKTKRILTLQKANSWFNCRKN

Recombinant Human MMP-13 = biological target: T3, Recombinant Human MMP-13 (Homo sapiens, UniProt P45452); experiment: MMP-13 inhibitory activity (MMP-13 specific fluorescent substrate with quencher)
T3 construct: purchased R&D systems 511-MM
Method in brief: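 Recombinant human MMP-13 with test compound, reaction started with quenched fluorogenic peptide 7-MCA-Pro-CHA-Gly-NVal-His-Ala-DPA in Tris-HCl buffer, 1 h at 25 °C, stopped with acetic acid. Fluorescence at Ex 325/Em 405 nm; % inhibition versus enzyme-free and inhibitor-free wells, reported as IC50 (μM).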

[1] = aggrecanase-1 inhibitory action, read-out: IC50 AG1 (Experimental Example 1)
[2] = MMP-1 inhibitory action, FITC-labeled collagen type I, 37° C. for 3 hr, read-out: IC50 MMP1 (Experimental Example 2)
[3] = Recombinant Human MMP-13, fluorescent substrate, 25° C. for 1 h, read-out: IC50 MMP13 (Experimental Example 3)
[4] = Experimental Example 1, read-out: IC50 AG1
[5] = Experimental Example 2, read-out: IC50 MMP1
[6] = Experimental Example 3, read-out: IC50 MMP13

pIC50 (aggrecanase-1; [1])	pIC50 (MMP-1; [2])	pIC50 (Recombinant Human MMP-13; [3])	pIC50 (aggrecanase-1; [4])	pIC50 (MMP-1; [5])	pIC50 (Recombinant Human MMP-13; [6])	Structure (SMILES)
> 7.00	≤ 6.00	> 7.00				O=C(O)C1(NS(=O)(=O)c2ccc(-c3ccc(Cl)cc3)s2)CC1c1cccc(NS(=O)(=O)c2cccnc2)c1 (stereo not drawn) [Example 1-136]
> 6.00	≤ 6.00	> 7.00				CN1CCN(C(=O)CCc2ccccc2C2CC2(NS(=O)(=O)c2ccc(-c3cc(C(F)(F)F)on3)s2)C(=O)O)CC1 (stereo not drawn) [Example 2-232]
≤ 6.00	> 6.00	> 7.00				O=C(O)[C@]1(NS(=O)(=O)c2ccc(-c3cc(CF)on3)cc2)C[C@@H]1c1ccccc1 [Example 2-137]
> 6.00	≤ 5.00	> 6.00				O=C(O)[C@]1(NS(=O)(=O)c2ccc(-c3cc(C(F)(F)F)no3)s2)C[C@@H]1c1ccccc1 [Example 2-171]
> 7.00	≤ 6.00	> 6.00				COC(=O)c1cccc(C2CC2(NS(=O)(=O)c2ccc(-c3ccc(Cl)cc3)s2)C(=O)O)c1 (stereo not drawn) [Example 2-184]
			> 7.00	> 7.00	> 7.00	CC1[C@H](c2ccccc2)[C@]1(NS(=O)(=O)c1ccc(-n2cc(Br)cn2)s1)C(=O)O (stereo partly drawn) [Example 2-494]
			≤ 6.00	≤ 6.00	≤ 6.00	CC(C)CC(=O)N1CCN(S(=O)(=O)N[C@@]2(C(=O)O)C[C@@H]2c2ccccc2)CC1 [Example 2-513]
			> 7.00	≤ 5.00	> 6.00	C[C@@H]1CN(CC2(c3ccccc3)CC2(NS(=O)(=O)c2ccc(-c3ccc(Cl)cc3)s2)C(=O)O)C[C@H](C)O1 (stereo partly drawn) [Example 2-344]
≤ 6.00	≤ 5.00	> 7.00				O=C(O)C1(NS(=O)(=O)N2CC=C(c3ccc(Cl)cc3)CC2)CC1c1ccccc1 (stereo not drawn) [Example 2-149]
			> 7.00	≤ 6.00	> 7.00	CCOC(=O)CSCC1(c2ccccc2)CC1(NS(=O)(=O)c1ccc(-c2ccc(Cl)cc2)s1)C(=O)O (stereo not drawn) [Example 2-352]
> 7.00	≤ 5.00	> 7.00				O=C(O)[C@]1(NS(=O)(=O)c2ccc(-c3ccc(Cl)cc3)s2)C[C@@H]1c1cccc([N+](=O)[O-])c1 [Example 2-170]
> 7.00	≤ 5.00	> 7.00				O=C(O)C1(NS(=O)(=O)c2ccc(-c3ccc(Cl)cn3)s2)CC1c1cccc(Cn2cccn2)c1 (stereo not drawn) [Example 2-56]
			> 7.00	> 6.00	> 7.00	O=C(O)[C@]1(NS(=O)(=O)c2ccc(-c3cc(C(F)(F)F)on3)s2)C[C@@H]1c1ccc(CCCO)cc1 [Example 2-302]
≤ 6.00	≤ 5.00	≤ 6.00				CC(=O)N1CC=C(c2ccc(S(=O)(=O)N[C@@]3(C(=O)O)C[C@@H]3c3ccccc3)s2)CC1 [Example 2-177]
			> 7.00	> 6.00	> 7.00	O=C(O)C1(NS(=O)(=O)c2ccc(-c3ccc(Cl)cn3)s2)C2CCCc3ccccc3C21 (stereo not drawn) [Example 2-365]
			> 6.00	≤ 6.00	> 6.00	O=C(CO)NCC1(c2ccccc2)CC1(NS(=O)(=O)c1ccc(-c2ccc(Cl)cc2)s1)C(=O)O (stereo not drawn) [Example 2-399]
			> 6.00	≤ 5.00	> 6.00	O=C(NCC1(c2ccccc2)CC1(NS(=O)(=O)c1ccc(-c2ccc(Cl)cc2)s1)C(=O)O)N1CCOCC1 (stereo not drawn) [Example 2-381]
			> 7.00	≤ 6.00	> 7.00	CC1[C@H](c2ccccc2)[C@]1(NS(=O)(=O)N1CCN(c2ccc(Cl)cn2)CC1)C(=O)O (stereo partly drawn) [Example 2-457]
			≤ 6.00	≤ 6.00	≤ 6.00	CC1[C@H](c2ccccc2)[C@]1(NS(=O)(=O)N1CCN(C(=O)NCc2ccccc2)CC1)C(=O)O (stereo partly drawn) [Example 2-529]
> 7.00	≤ 6.00	> 6.00				O=C(O)C1(NS(=O)(=O)c2ccc3c(c2)Cc2cc(Br)ccc2-3)CC1c1ccccc1 (stereo not drawn) [Example 1-72]

pIC50 (aggrecanase-1; [1])	pIC50 (MMP-1; [2])	pIC50 (Recombinant Human MMP-13; [3])	pIC50 (aggrecanase-1; [4])	pIC50 (MMP-1; [5])	pIC50 (Recombinant Human MMP-13; [6])	Structure (SMILES)
≤ 5.00	≤ 5.00	≤ 5.00				CC(C)NC(=O)c1ccc(S(=O)(=O)NC2(C(=O)O)CC2c2ccccc2)s1 (stereo not drawn) [Example 2-94]
			> 6.00	≤ 5.00	> 6.00	CC1[C@H](c2ccccc2)[C@]1(NS(=O)(=O)c1ccc(-c2cn(C)cn2)s1)C(=O)O (stereo partly drawn) [Example 2-450]
			≤ 6.00	≤ 5.00	≤ 6.00	C[C@]1(c2ccccc2)C[C@@]1(NS(=O)(=O)c1ccc(-c2cc(Cl)cc(Cl)c2)s1)C(=O)O [Example 2-448]
			> 7.00	> 6.00	> 7.00	CC(C)c1cc(-c2ccc(S(=O)(=O)N[C@@]3(C(=O)O)C(C)[C@@H]3c3ccccc3)s2)no1 (stereo partly drawn) [Example 2-408]
> 7.00	≤ 6.00	> 6.00				CC1(C)COC(c2ccccc2C2CC2(NS(=O)(=O)c2ccc(-c3ccc(Cl)cc3)s2)C(=O)O)=N1 (stereo not drawn) [Example 2-77]
≤ 5.00	≤ 5.00	≤ 5.00				O=C(c1cccc(Cl)c1)N1CCN(S(=O)(=O)NC2(C(=O)O)CC2c2ccccc2)CC1 (stereo not drawn) [Example 2-160]
			> 6.00	> 6.00	> 7.00	O=C(OCC1(c2ccccc2)CC1(NS(=O)(=O)c1ccc(-c2cc(C(F)(F)F)on2)s1)C(=O)O)N1CCCCC1 (stereo not drawn) [Example 2-310]
> 7.00	> 6.00	> 7.00				C[C@@H]1[C@H](c2ccccc2)[C@]1(NS(=O)(=O)c1ccc(-c2cc(C(F)(F)F)on2)s1)C(=O)O [Example 2-7, (1S,2R,3R)-2-methyl-3-phenyl-1-[5-(5-trifluoromethyl-isoxazol-3-yl)-thiophene-2-sulfonylamino]-cyclopropanecarboxylic acid]
> 7.00	≤ 5.00	> 6.00				COC(=O)c1ccccc1C1CC1(NS(=O)(=O)c1ccc(-c2ccc(Cl)cc2)s1)C(=O)O (stereo not drawn) [Example 2-205]
> 6.00	≤ 5.00	> 6.00				O=C(O)C1(NS(=O)(=O)c2ccc(-c3ccc(Cl)cc3)s2)CC1C1CCCC1 (stereo not drawn) [Example 2-61]
			> 7.00	≤ 6.00	> 7.00	O=C(O)C1(NS(=O)(=O)c2ccc(-c3cc(C(F)(F)F)on3)s2)CC1c1cccc(CCO)c1 (stereo not drawn) [Example 2-268]
≤ 5.00	≤ 5.00	≤ 6.00				O=C(O)[C@]1(NS(=O)(=O)/C=C/c2ccc(C(F)(F)F)cc2)C[C@@H]1c1ccccc1 [Example 2-161]
≤ 6.00	≤ 5.00	≤ 5.00				CN(C)CCOc1ccccc1C1CC1(NS(=O)(=O)c1ccc(-c2ccc(Cl)cc2)s1)C(=O)O (stereo not drawn) [Example 2-49]
> 6.00	≤ 5.00	> 6.00				O=C(O)C1(NS(=O)(=O)c2ccc(-c3ccc(Cl)cc3)s2)CC1C1CCC1 (stereo not drawn) [Example 2-58]
			≤ 6.00	≤ 5.00	≤ 5.00	C[C@]1(c2ccccc2)C[C@@]1(NS(=O)(=O)c1ccc(-c2cccc(C(=O)O)c2)s1)C(=O)O [Example 2-479]
> 6.00	≤ 5.00	> 6.00				CC(C)C1(c2ccccc2)CC1(NS(=O)(=O)c1ccc(-c2ccc(Cl)cc2)s1)C(=O)O (stereo not drawn) [Example 2-123]
> 7.00	> 6.00	> 7.00				CC(F)(F)c1cc(-c2ccc(S(=O)(=O)N[C@@]3(C(=O)O)C[C@@H]3c3ccccc3)s2)no1 [Example 2-84]
			> 6.00	≤ 6.00	> 6.00	Cc1cc(C2CC2(NS(=O)(=O)c2ccc(-c3cc(C(F)(F)F)on3)s2)C(=O)O)no1 (stereo not drawn) [Example 2-313]
≤ 5.00	≤ 5.00	≤ 5.00				O=C(NC1CC1)c1ccc(S(=O)(=O)NC2(C(=O)O)CC2c2ccccc2)s1 (stereo not drawn) [Example 2-105]
